One test deals with MDA-MB-361 cells. Nature of the test: PI high content imaging of G1 arrest and cell proliferation, MDA-MB-361. The test is classed as cell-based. Particulars: Homo sapiens, at least 2 DT. The method, then: Relative IC50/EC50 values were determined by curve fitting to a four parameter logistic equation: Y = bottom + ((top-bottom)/ (1+exp(HillSlope*(X – LnIC50)), where X is the natural log of dose/concentration, Y is response, decreasing as X increases, top and bottom are plateaus in the same units as Y, lnIC50 is the natural log of potency, in the same log units as X, and HillSlope measures the steepness of the curve. Data were plotted using GraphPad Prism. […]
www.impactjournals.com/oncotarget/ Oncotarget Supplementary Materials
Preclinical characterization of abemaciclib in hormone receptor […]
Enzyme kinetics of CDK6/cyclin D3 complexes Cells were fixed with para-formaldehyde and Rb phosphorylation at Serine 780 was detected using CDK6/cyclin D3 activity was measured by the a primary mouse anti-Rb (PS780) antibody followed phosphorylation of CTRF using [g-33P] […] Plates were read in an kinase buffer containing 68 mM Hepes at pH 7.5, 6.67 mM Acumen Explorer eX3 (TTP Labtech). […] 10µL of CDK6/cyclin corresponding to 500-530 nm and the percentage of D3 enzyme complex (Millipore 14-519, #D13BP009NA) cells with pRb signal relative to the total PI stained (1 nM final concentration in the assay) was added onto subpopulation was calculated by the instrument’s software a mix of substrate and test compound. […]

Another test concerns ZR-75-1 xenograft tumors. Nature of the test: In vivo target inhibition, immunoblotting of ZR-75-1 xenograft tumors. Details: species or system mouse. The following applies: 50 or 75 mg/kg QD x 5, Western blots. The method, then: Control animals were treated with vehicle (1% HEC/ 25 mM phosphate buffer, pH = 2) using the same schedule of dosing. The red bar just above the X-axis illustrates the duration of the treatment period. Tumor volume measurements were taken routinely during the course of the study and are plotted as mean +/- SEM versus days following tumor cell implantation. (B) Body weights were recorded routinely during the course of the study and are plotted as mean % change (+/– SEM) relative to the mean body weight recorded on the day just prior to the first day of dosing (baseline day = 27). (C) The waterfall plots indicate the relative tumor volumes for individual animals which were determined at the end of the dosing period (study day 55). […] Growth inhibition is observed in those instances where the calculated changes in %DT/C are less than 100% whereby greater inhibition results in smaller %DT/C values. Change in %DT/C values that are less than zero indicate regressions whereby the tumor volumes on day 55 are smaller than the baseline tumor volume measured on the day prior to the initiation of dosing (baseline day = day 27). […] The tumor volumes measured on day 27 served as the baseline volumes for the calculation of %DT/C. […] Potential CDK9 inhibition was assessed by measuring the expression of MCL1 or phosphorylation of serine 2 on the C-terminal domain repeat on RNA polymerase II (pCTD). […]
For orientation: Immunoblotting shows a protein as a band on a membrane.

For test [1], the system named is MCF7, MDA-MB-361 and EFM-19 cells. Nature of the test: Cell morphology by bright field microscopy. The test is classed as cell-based, human. The following applies: 0.5 µM, 3 DT.
Protocol: (A–D) Cells were treated with 0.2% DMSO (A MDA-
3 DT and side scatter (SSC) analysis was carried out using flow cytometry and analyzed with FlowJo X software.

Where two headings read alike, the source gives them in different places.

Take `CCN1CCN(Cc2ccc(Nc3ncc(F)c(-c4cc(F)c5nc(C)n(C(C)C)c5c4)n3)nc2)CC1` [abemaciclib, Abemaciclib]: the IC50 in the test on MDA-MB-361 cells (n = 2, read-out: IC50 2n (G1 arrest)) came out at 38 ± 2 nM; in the test on MDA-MB-361 cells (n = 2, read-out: IC50 Cell number) it was 45 ± 14 nM. Besides, the “CDK9 inhibition in tumors (pCTD, MCL1 expression)” value in the test on ZR-75-1 xenograft tumors was “not inhibited at any dose”. Further, the “phospho-(Ser780/807/811)-Rb, Topo IIα and phospho-(Ser10)-H3 in tumors” value in the test on ZR-75-1 xenograft tumors (tumors collected 24 hours later) is reported as “inhibition of phospho-(Ser780/807/811)-Rb”. The cell morphology result in test [1] was “larger and flatter compared to vehicle-treated cells”.

Broadly, the IC50 is the concentration at which inhibition is half-maximal.

The values above are taken from publication PMC5642494 (Oncotarget, 2017).
